Results reported in patent US20250249110A1, “ANTIMICROBIAL PEPTIDE DERIVATIVE AND USE THEREOF” (SICHUAN UNIVERSITY, priority 2016, published 2025).
Where a SMILES comes first, the peptide text is derived from it. The star is where a group is joined. Succinyl(4-O-cholesteryl) = CC(C)CCC[C@@H](C)[C@H]1CC[C@H]2[C@@H]3CC=C4C[C@@H](OC(=O)CCC(=O)*)CC[C@]4(C)[C@H]3CC[C@]12C

How the values were obtained:
multiple strains = assay: Antibacterial activity in vitro (MIC); format: cell-based
[1] = Morphology under transmission electron microscopy; format: physicochemical; conditions: TEM
Protocol: As the DP7 is positively charged, the DP7-C micelle formed by self-assembly is also positively charged in aqueous solution, showing its potential as a non-viral gene transmission vector, especially siRNA transmission vector. The morphology of DP7-C micelles formed by self-assembly and DP7-C/siRNA complexes is observed under a transmission electron microscopy (H-6009IV, Hitachi, Japan). First, 1 mg\mL of micellar solution is diluted with distilled water and coated on a copper mesh, covered with nitrocellulose, then negatively stained with phosphotungstic acid, dried at room temperature and observed under an electron microscope. […] Under the electron microscope, the particle size of DP7-C micelles is about 60 nm, and the particle size of DP7-C micelle/siRNA complex is about 100 nm (see FIGS. 14A and 14B for the results).

[2] = system: C26 subcutaneously implanted tumor; assay: Subcutaneously implanted tumor model of C26 mouse colon cancer; format: in vivo
Protocol: In order to further characterize the application potential of DP7-C micelles in tumor therapy, we established a subcutaneously implanted tumor model of C26 mouse colon cancer and used DP7-C to transmit anti-VEGF siRNA therapeutic genes for therapeutic research. • (1) On day 0, female BALB/c mice aged 6-8 weeks are subcutaneously inoculated with 0.1 mL of cell suspension (containing about 1.5×10^6 C26 cells). • (2) On day 8, when the tumor is palpable, mice are randomly divided into 4 groups, 8 mice for each group, and are labeled. • (3) Four groups of mice are intratumorally injected with 10 doses of normal saline (blank control group), blank DP7-C micelle (25 μg), DP7-C/no-sense control siRNA complex (25 μg/5 μg) or DP7-C/VEGF siRNA complex (25 μg/5 μg) respectively. • (4) On day 20, when the mice in the control group are already very weak, all the mice are killed by cervical dislocation; the tumor tissues in the abdominal cavity as well as the heart, liver, spleen, lung and kidney tissues are immediately collected, weighed and analyzed. The ascites of each group of mice is also collected and measured, and CD31 immunohistochemical staining is performed on tumor tissues of each experimental group. The collected heart, liver, spleen, lung and kidney tissues are analyzed by HE staining.

NY-ESO-1+B16 tumor cells = assay: NY-ESO-1 vaccine, preventive and therapeutic NY-ESO-1+ B16 tumor models; format: in vivo, mouse; conditions: both preventive and therapeutic model; NY-ESO-1 protein antigen
Protocol: The specific steps are as follows: • (1) Vaccine preparation
Incubate 20 μg of CpG and 40 μg of DP7-C at 37° C. for 15 min, add 5 μg of NY-ESO-1 protein, and replenish to a volume of 100 μl with sterile PBS. • (2) Grouping and dosage regimen
In this study, animal experiments are divided into […]: NS, CpG, DP7-C and CpG/DP7-C, 10 mice for each group, and the dosage of each mouse is as follows: • (1) NS group: 100 μl of PBS; • (2) CpG group: 5 μg of NY-ESO-1 protein+20 μg of CpG; • (3) DP7-C group: 5 μg of NY-ESO-1 protein+40 μg of DP7-C; • (4) CpG/DP7-C group: 5 μg of NY-ESO-1 protein+20 μg of CpG+40 μg DP7-C;
The total dosage of each mouse is 100 μl; if the dosage is less than 100 μl, sterile PBS may be added to reach 100 μl. • (3) Preventive immunity tumor model: perform subcutaneous immunotherapy at multiple sites on weeks 0, 2 and 4, and detect total antibody titers before inoculate tumor on week 5. Subcutaneously inoculate the tumor cells NY-ESO-1+B16: […] at the back of each mouse. After the tumor grows out, measure it at intervals of 3 days. Calculation formula of tumor volume: 0.52×length×width^2. Therapeutic immune tumor model: subcutaneously inoculate 2×10^5 of NY-ESO-1^+B16 tumor cells at the back of each mouse on day 0, and immunize on day 5 (once a week, for 3 consecutive times). Measure at intervals of 3 days and observe the survival time after the tumor grows out.

CC[C@H](C)[C@H](NC(=O)[C@H](CCCNC(=N)N)NC(=O)[C@H](Cc1c[nH]c2ccccc12)NC(=O)[C@H](CCC(N)=O)NC(=O)[C@@H](NC(=O)CCC(=O)O[C@H]1CC[C@@]2(C)C(=CC[C@H]3[C@@H]4CC[C@H]([C@H](C)CCCC(C)C)[C@@]4(C)CC[C@@H]32)C1)C(C)C)C(=O)N[C@@H](CCCNC(=N)N)C(=O)N[C@H](C(=O)N[C@@H](C)C(=O)N[C@H](C(=O)N[C@H](C(=O)N[C@@H](CCCNC(=N)N)C(=O)N[C@@H](CCCCN)C(N)=O)[C@@H](C)CC)C(C)C)C(C)C [DP7-C, Chol-suc-VQWRIRVAVIRK-NH2] ({Succinyl(4-O-cholesteryl)}-VQWRIRVAVIRK-NH2)
MIC (multiple strains): > 1024 µg/mL
particle size under the electron microscope [1]: about 60 nm
HE staining of major organ tissues ([2]; heart, liver, spleen, lung, kidney): no significant pathological changes
average tumor weight (unit mm^3) ([2]; intratumoral injection, 10 doses): 357.64±30.56 mm^3
tumor growth (NY-ESO-1+B16 tumor cells): inhibit tumor growth to some extent
